Data from patent publication US20230286958A1, “PLASMA KALLIKREIN INHIBITORS” (Merck Sharp & Dohme LLC, priority 2020, published 2023).

Assays:
Human plasma kallikrein = Human plasma kallikrein (Homo sapiens (Human), UniProt P03952); experiment: Kallikrein Assay (fluorogenic substrate Acetyl-K-P-R-AFC); assay type: biochemical; conditions: Plasma Kallikrein (PKal)
Description: (§1) The effectiveness of a compound of the present invention as an inhibitor of Kallikrein can be determined using a relevant purified serine protease, and an appropriate synthetic substrate. The rate of hydrolysis of the chromogenic or fluorogenic substrate by the relevant serine protease was measured both in the absence and presence of compounds of the present invention. Assays were conducted at room temperature or at 37° C. […] A decrease in the rate of fluorescence change in the presence of inhibitor is indicative of enzyme inhibition. Such methods are known to one skilled in the art. The results of this assay are expressed as the half-maximal inhibitory concentrations (IC50), or the inhibitory constant, Ki.
Kallikrein determinations were made in 50 mM HEPES buffer at pH 7.4 containing 150 mM NaCl, 5 mM CaC12, and 0.1% PEG 8000 (polyethylene glycol; Fisher Scientific). Determinations were made using purified Human plasma kallikrein at a final concentration of 0.5 nM (Enzyme Research Laboratories) and the synthetic substrate, Acetyl-K-P-R-AFC (Sigma # C6608) at a concentration of […].
Times required to achieve equilibration between enzyme and inhibitor were determined in control experiments. […] IC50 was determined by inflection point from a four parameter logistic curve fit. Ki was calculated using the Cheng Prusoff equation, Ki = IC50/(1+([S]/Km)).

human Factor XIa = human Factor XIa (Homo sapiens (Human), UniProt P03951); experiment: Factor XIa Assay (fluorogenic substrate GPR-AFC); assay type: biochemical; conditions: Factor XIa (FXIa)
Description: as §1, with “Coagulation Factor XIa” for “Kallikrein”
Compounds were pre-incubated for 30 minutes at 25° C. with human (0.04 nM) Factor XIa in 50 mM HEPES buffer with 150 mM sodium chloride, 5 mM calcium chloride, 0.1% PEG 8000, pH 7.4. […] The % inhibition for each data point was calculated from the data and analyzed using the log (inhibitor) vs. response four parameters equation to determine the half-maximal inhibitory concentrations (IC50). The IC50 were converted to equilibrium inhibitory constants (Ki) using the Cheng-Prusoff equation.

human Factor XIa, sequence (P03951 388-625 limits assumed): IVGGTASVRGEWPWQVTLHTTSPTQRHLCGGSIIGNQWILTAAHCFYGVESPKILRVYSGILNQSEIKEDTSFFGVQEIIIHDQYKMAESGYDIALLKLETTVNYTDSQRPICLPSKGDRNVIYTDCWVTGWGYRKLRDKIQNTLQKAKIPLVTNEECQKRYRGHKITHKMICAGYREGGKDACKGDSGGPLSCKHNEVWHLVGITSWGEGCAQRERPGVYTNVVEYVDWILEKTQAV
human Factor XIa, sequence (P03951 19-387 partner limits assumed): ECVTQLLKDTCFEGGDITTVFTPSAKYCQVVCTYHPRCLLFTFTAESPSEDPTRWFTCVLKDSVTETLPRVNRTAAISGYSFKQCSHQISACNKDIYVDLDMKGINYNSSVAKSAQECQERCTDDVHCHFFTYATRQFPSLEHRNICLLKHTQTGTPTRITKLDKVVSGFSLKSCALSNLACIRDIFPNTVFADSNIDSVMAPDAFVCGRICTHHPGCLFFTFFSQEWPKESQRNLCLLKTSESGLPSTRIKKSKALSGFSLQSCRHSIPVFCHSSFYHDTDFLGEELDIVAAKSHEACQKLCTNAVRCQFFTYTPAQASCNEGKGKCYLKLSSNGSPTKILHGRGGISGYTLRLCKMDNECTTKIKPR
Human plasma kallikrein, sequence (P03952 391-638): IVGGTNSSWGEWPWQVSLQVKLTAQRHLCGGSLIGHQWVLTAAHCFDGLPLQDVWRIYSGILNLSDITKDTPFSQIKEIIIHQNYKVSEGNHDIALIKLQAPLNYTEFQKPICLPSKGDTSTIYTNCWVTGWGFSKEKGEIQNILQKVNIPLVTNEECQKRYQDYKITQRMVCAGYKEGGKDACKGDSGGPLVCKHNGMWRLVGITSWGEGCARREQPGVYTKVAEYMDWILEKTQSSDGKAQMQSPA
Human plasma kallikrein, sequence (P03952 20-390 partner): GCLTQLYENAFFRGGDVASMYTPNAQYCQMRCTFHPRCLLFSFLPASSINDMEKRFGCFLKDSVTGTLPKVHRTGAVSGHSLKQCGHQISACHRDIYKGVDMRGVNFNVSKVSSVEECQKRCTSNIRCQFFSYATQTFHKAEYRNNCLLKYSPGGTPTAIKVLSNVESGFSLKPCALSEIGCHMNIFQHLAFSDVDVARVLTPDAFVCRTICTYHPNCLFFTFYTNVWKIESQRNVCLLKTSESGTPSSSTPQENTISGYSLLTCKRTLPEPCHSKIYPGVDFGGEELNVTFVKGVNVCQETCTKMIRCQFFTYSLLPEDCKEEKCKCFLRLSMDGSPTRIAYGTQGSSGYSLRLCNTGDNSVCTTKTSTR

| Compound | IC50 (Human plasma kallikrein) [nM] | IC50 (human Factor XIa) [nM] |
| --- | --- | --- |
| Cc1cc(C(C)n2cc(NC(=O)c3cncc(-c4c(OC(F)F)ccc(Cl)c4F)n3)cn2)nnc1N1C[C@H]2C[C@H]2C1=O (single isomer, unassigned) [Example 114, 6-(3-Chloro-6-(difluoromethoxy)-2-fluorophenyl)-N-(1-((S or R)-1-(5-methyl-6-((1R,5S)-2-oxo-3-azabicyclo[3.1.0]hexan-3-yl)pyridazin-3-yl)ethyl)-1H-pyrazol-4-yl)pyrazine-2-carboxamide] | 0.7 | 558 |
| Cc1nc(C(C)n2cc(NC(=O)c3cncc(-c4c(C(F)(F)F)ccc(Cl)c4F)n3)cn2)cnc1N1C[C@H]2C[C@H]2C1=O (single isomer, unassigned) [Example 19, 6-(3-Chloro-2-fluoro-6-(trifluoromethyl)phenyl)-N-(1-((R or S)-1-(6-methyl-5-((1R,5S)-2-oxo-3-azabicyclo[3.1.0]hexan-3-yl)pyrazin-2-yl)ethyl)-1H-pyrazol-4-yl)pyrazine-2-carboxamide] | 3.7 | > 10000 |
| Cc1cc(C(C)n2cc(NC(=O)c3nc(-c4c(C(F)F)ccc(Cl)c4F)cnc3C)cn2)nnc1N1C[C@H]2C[C@H]2C1=O (single isomer, unassigned) [Example 103, 6-(3-Chloro-6-(difluoromethyl)-2-fluorophenyl)-3-methyl-N-(1-((R or S)-1-(5-methyl-6-((1R,5S)-2-oxo-3-azabicyclo[3.1.0]hexan-3-yl)pyridazin-3-yl)ethyl)-1H-pyrazol-4-yl)pyrazine-2-carboxamide] | 1.8 | 445 |
| Cc1nc(N2C[C@H]3C[C@H]3C2=O)ncc1C1(n2cc(NC(=O)c3nc(-c4c(C(F)F)ccc(Cl)c4F)cnc3C)cn2)CC1 [Example 54, 6-(3-Chloro-6-(difluoromethyl)-2-fluorophenyl)-3-methyl-N(1-(1-(4-methyl-2-((1R,5S)-2-oxo-3-azabicyclo[3.1.0]hexan-3-yl)pyrimidin-5-yl)cyclopropyl)-1H-pyrazol-4-yl)pyrazine-2-carboxamide] | 2.4 | 1280 |
| Cc1cc(N2C[C@H]3C[C@H]3C2=O)ncc1C(C)n1cc(NC(=O)c2nc(-c3c(C(F)F)ccc(Cl)c3F)cnc2CO)cn1 (single isomer, unassigned) [Example 203, 6-(3-Chloro-6-(difluoromethyl)-2-fluorophenyl)-3-(hydroxymethyl)-N-(1-((S or R)-1-(4-methyl-6-((1R,5S)-2-oxo-3-azabicyclo[3.1.0]hexan-3-yl)pyridin-3-yl)ethyl)-1H-pyrazol-4-yl)pyrazine-2-carboxamide] | 0.3 | 282 |
| Cc1ncc(-c2c(C(F)F)ccc(Cl)c2F)nc1C(=O)Nc1cnn(Cc2cnc(N3C[C@H]4C[C@H]4C3=O)c(N)c2)c1 [Example 191, N-(1-((5-Amino-6-((1R,5S)-2-oxo-3-azabicyclo[3.1.0]hexan-3-yl)pyridin-3-yl)methyl)-1H-pyrazol-4-yl)-6-(3-chloro-6-(difluoromethyl)-2-fluorophenyl)-3-methylpyrazine-2-carboxamide] | 1.1 | 111 |
| Cc1cc(N2C[C@H]3C[C@H]3C2=O)ccc1C(C)n1cc(NC(=O)c2nc(-c3c(C(F)F)ccc(Cl)c3F)cnc2C)cn1 (single isomer, unassigned) [Example 97, 6-(3-Chloro-6-(difluoromethyl)-2-fluorophenyl)-3-methyl-N-(1-((S or R)-1-(2-methyl-4-((1R,5S)-2-oxo-3-azabicyclo[3.1.0]hexan-3-yl)phenyl)ethyl)-1H-pyrazol-4-yl)pyrazine-2-carboxamide] | 1.3 | > 10000 |
| Cc1cc(N2C[C@H]3C[C@H]3C2=O)ncc1C(C)n1cc(NC(=O)c2nc(-c3c(C(F)F)ccc(Cl)c3F)cnc2CO)cn1 (single isomer, unassigned) [Example 204, 6-(3-Chloro-6-(difluoromethyl)-2-fluorophenyl)-3-(hydroxymethyl)-N-(1-((R or S)-1-(4-methyl-6-((1R,5S)-2-oxo-3-azabicyclo[3.1.0]hexan-3-yl)pyridin-3-yl)ethyl)-1H-pyrazol-4-yl)pyrazine-2-carboxamide] | 5.9 | 2520 |
| Cc1cc(C(C)n2cc(NC(=O)c3nc(-c4c(C(F)F)ccc(Cl)c4F)cnc3C(C)O)cn2)cnc1N1C[C@H]2C[C@H]2C1=O (single isomer, unassigned) [Example 213, 6-(3-Chloro-6-(difluoromethyl)-2-fluorophenyl)-3-((Ror S)-1-hydroxyethyl)-N-(1-((R or S)-1-(5-methyl-6-((1R,5S)-2-oxo-3-azabicyclo[3.1.0]hexan-3-yl)pyridin-3-yl)ethyl)-1H-pyrazol-4-yl)pyrazine-2-carboxamide] | 0.9 | 2030 |
| CC(c1cnc(N2C[C@H]3C[C@H]3C2=O)nc1CO)n1cc(NC(=O)c2cncc(-c3c(C(F)F)ccc(Cl)c3F)n2)cn1 (stereo in doubt) [Example 169, 6-(3-Chloro-6-(difluoromethyl)-2-fluorophenyl)-N-(1-(1-(4-(hydroxymethyl)-2-(2-oxo-3-azabicyclo[3.1.0]hexan-3-yl)pyrimidin-5-yl)ethyl)-1H-pyrazol-4-yl)pyrazine-2-carboxamide] | 15.2 | 2200 |
| Cc1ncc(-c2c(C(F)F)ccc(Cl)c2F)nc1C(=O)Nc1cnn(C(C)c2cnc(N3C[C@H]4C[C@H]4C3=O)c(OC(F)F)c2C)c1 (single isomer, unassigned) [Example 224] | 66.1 | > 10000 |
| CCc1ncc(-c2c(C(F)F)ccc(Cl)c2F)nc1C(=O)Nc1cnn(Cc2cc(C)c(N3C[C@H]4C[C@H]4C3=O)nn2)c1 [Example 233, 6-(3-Chloro-6-(difluoromethyl)-2-fluorophenyl)-3-ethyl-N-(1-((5-methyl-6-((1R,5S)-2-oxo-3-azabicyclo[3.1.0]hexan-3-yl)pyridazin-3-yl)methyl)-1H-pyrazol-4-yl)pyrazine-2-carboxamide] | 19.7 | 1200 |
| Cc1c(C(C)n2cc(NC(=O)c3cncc(-c4c(C(F)F)ccc(Cl)c4F)n3)cn2)nnc(N2C[C@H]3C[C@H]3C2=O)c1C (single isomer, unassigned) [Example 110, 6-(3-Chloro-6-(difluoromethyl)-2-fluorophenyl)-N-(1-((S or R)-1-(4,5-dimethyl-6-((1R,5S)-2-oxo-3-azabicyclo[3.1.0]hexan-3-yl)pyridazin-3-yl)ethyl)-1H-pyrazol-4-yl)pyrazine-2-carboxamide] | 14 | 3450 |
| [2H]C([2H])(O)c1ncc(-c2c(C(F)F)ccc(Cl)c2F)nc1C(=O)Nc1cnn([C@@H](C)c2cnc(N3C[C@H]4C[C@H]4C3=O)nc2)c1 [Example 182, 6-(3-Chloro-6-(difluoromethyl)-2-fluorophenyl)-3-(hydroxymethyl-d2)-N-(1-((S)-1-(2-((1R,5S)-2-oxo-3-azabicyclo[3.1.0]hexan-3-yl)pyrimidin-5-yl)ethyl)-1H-pyrazol-4-yl)pyrazine-2-carboxamide] | 0.7 | 572 |
| Cc1nc(C(C)n2cc(NC(=O)c3cncc(-c4c(C(F)F)ccc(Cl)c4F)n3)cn2)ccc1N1C[C@H]2C[C@H]2C1=O (single isomer, unassigned) [Example 60, 6-(3-Chloro-6-(difluoromethyl)-2-fluorophenyl)-N-(1-((S or R)-1-(6-methyl-5-((1R,5S)-2-oxo-3-azabicyclo[3.1.0]hexan-3-yl)pyridin-2-yl)ethyl)-1H-pyrazol-4-yl)pyrazine-2-carboxamide] | 5.5 | > 10000 |
| Cc1ncc(-c2c(OC(F)F)ccc(Cl)c2F)nc1C(=O)Nc1cnn(C(C)c2cnc(N3C[C@H]4C[C@H]4C3=O)c(F)c2C)c1 (single isomer, unassigned) [Example 130, 6-(3-Chloro-6-(difluoromethoxy)-2-fluorophenyl)-N-(1-((R or S)-1-(5-fluoro-4-methyl-6-((1R,5S)-2-oxo-3-azabicyclo[3.1.0]hexan-3-yl)pyridin-3-yl)ethyl)-1H-pyrazol-4-yl)-3-methylpyrazine-2-carboxamide] | 0.8 | 549 |
| C[C@@H](c1cnc(N2C[C@H]3C[C@H]3C2=O)nc1)n1cc(NC(=O)c2nc(-c3c(C(F)F)ccc(Cl)c3F)cnc2CC(C)(C)O)cn1 [Example 180] | 7.7 | 4950 |
